# Molecular target: T1, TNKS1 (Homo sapiens, UniProt O95271)
# T1 construct: purchased BPS Bioscience, San Diego, USA 80579 (TNKS1 Histone Ribosylation Assay Kit)
# T1 sequence (O95271 1-1327): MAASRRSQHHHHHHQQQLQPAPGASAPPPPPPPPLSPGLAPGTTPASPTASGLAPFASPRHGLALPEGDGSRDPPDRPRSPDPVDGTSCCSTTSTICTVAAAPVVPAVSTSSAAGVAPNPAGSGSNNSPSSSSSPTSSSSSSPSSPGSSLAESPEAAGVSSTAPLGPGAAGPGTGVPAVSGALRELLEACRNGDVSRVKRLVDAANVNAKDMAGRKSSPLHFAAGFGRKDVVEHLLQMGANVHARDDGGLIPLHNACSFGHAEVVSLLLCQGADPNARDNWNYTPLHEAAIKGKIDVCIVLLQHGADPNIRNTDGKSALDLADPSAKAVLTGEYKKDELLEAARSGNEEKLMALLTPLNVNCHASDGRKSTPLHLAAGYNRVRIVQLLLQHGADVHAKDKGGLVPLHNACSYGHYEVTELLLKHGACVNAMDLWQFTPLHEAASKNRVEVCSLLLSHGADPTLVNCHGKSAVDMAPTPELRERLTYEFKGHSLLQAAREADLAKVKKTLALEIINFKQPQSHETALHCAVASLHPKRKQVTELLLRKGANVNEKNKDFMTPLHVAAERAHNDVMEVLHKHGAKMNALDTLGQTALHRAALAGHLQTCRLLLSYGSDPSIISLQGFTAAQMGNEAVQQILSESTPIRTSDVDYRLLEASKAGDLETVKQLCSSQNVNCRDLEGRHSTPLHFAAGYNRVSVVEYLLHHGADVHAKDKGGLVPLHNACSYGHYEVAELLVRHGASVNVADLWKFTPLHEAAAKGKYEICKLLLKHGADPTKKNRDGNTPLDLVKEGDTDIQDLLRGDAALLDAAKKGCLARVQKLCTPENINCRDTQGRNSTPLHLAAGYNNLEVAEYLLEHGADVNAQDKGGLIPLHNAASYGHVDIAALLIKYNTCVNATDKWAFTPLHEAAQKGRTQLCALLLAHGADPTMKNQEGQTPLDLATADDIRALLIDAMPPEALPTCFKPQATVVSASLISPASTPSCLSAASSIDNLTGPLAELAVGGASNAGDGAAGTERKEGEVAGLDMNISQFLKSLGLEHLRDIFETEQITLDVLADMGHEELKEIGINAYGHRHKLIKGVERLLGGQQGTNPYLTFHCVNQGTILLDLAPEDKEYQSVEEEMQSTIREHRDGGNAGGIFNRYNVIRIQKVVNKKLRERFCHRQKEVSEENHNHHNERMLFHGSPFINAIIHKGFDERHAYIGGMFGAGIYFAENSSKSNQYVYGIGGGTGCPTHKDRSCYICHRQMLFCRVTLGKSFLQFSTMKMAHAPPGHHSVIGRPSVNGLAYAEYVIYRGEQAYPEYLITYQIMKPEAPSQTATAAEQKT
# Assay: TNKS1 Assay B (auto-parsylation, [3H]-NAD+ SPA)
# Type: biochemical
# Settings: 6 nM TNKS1, auto-parsylation, over night at room temperature
row,IC50 [nM],Structure (SMILES)
1,82,"Cc1cc(C)n2ncc(C(=O)NC34CCC(C(=O)Nc5cc(C)c(F)cc5Cl)(CC3)CC4)c2n1 [Example 126, N-{4-[(2-chloro-4-fluoro-5-methylphenyl)carbamoyl]bicyclo[2.2.2]oct-1-yl}-5,7-dimethylpyrazolo[1,5-a]pyrimidine-3-carboxamide]"
2,120,"O=C(N[C@H]1CC[C@H](C(=O)Nc2ccc(F)cc2Cl)CC1)c1cnn2ccc(N3CCOCC3)nc12 [Example 107, N-{trans-4-[(2-chloro-4-fluorophenyl)carbamoyl]cyclohexyl}-5-(morpholin-4-yl)pyrazolo[1,5-a]pyrimidine-3-carboxamide]"
3,140,"CN(c1ccc(F)cc1Cl)C(=O)[C@H]1CC[C@H](NC(=O)c2cnn3cccnc23)CC1 [Example 155, N-{trans-4-[(2-chloro-4-fluorophenyl)(methyl)carbamoyl]cyclohexyl}pyrazolo[1,5-a]pyrimidine-3-carboxamide]"
4,62,CN1CCN(c2ccn3ncc(C(=O)N[C@H]4CC[C@H](C(=O)Nc5ccc(F)cc5Cl)CC4)c3n2)CC1 [Example 109]
5,87,"CCN(c1ccc(F)cc1Cl)C(=O)[C@H]1CC[C@H](NC(=O)c2cnn3cccnc23)CC1 [Example 154, N-{trans-4-[(2-chloro-4-fluorophenyl)(ethyl)carbamoyl]cyclohexyl}pyrazolo[1,5-a]pyrimidine-3-carboxamide]"
6,290,"O=C(N[C@H]1CC[C@H](C(=O)Nc2cnc(C(F)(F)F)cc2Cl)CC1)c1cnn2cccnc12 [Example 149, N-(trans-4-{[4-chloro-6-(trifluoromethyl)pyridin-3-yl]carbamoyl}cyclohexyl)pyrazolo[1,5-a]pyrimidine-3-carboxamide]"
7,340,"O=C(NC12CCC(C(=O)Nc3ccc(F)cc3Cl)(CC1)CC2)c1cnn2cccnc12 [Example 117, N-{4-[(2-chloro-4-fluorophenyl)carbamoyl]bicyclo[2.2.2]oct-1-yl}pyrazolo[1,5-a]pyrimidine-3-carboxamide]"
8,12,"O=C(NC1CC1)c1nc[nH]c1C(=O)N[C@H]1CC[C@@]2(CCN(c3ccc(F)cc3Cl)C2=O)CC1 [Example 165, N^5-[(trans)-2-(2-chloro-4-fluorophenyl)-1-oxo-2-azaspiro[4.5]dec-8-yl]-N^4-cyclopropyl-1H-imidazole-4,5-dicarboxamide]"
9,13,"CC(C)NC(=O)c1nc[nH]c1C(=O)N[C@H]1CC[C@@]2(CCN(c3ccc(F)cc3Cl)C2=O)CC1 [Example 162, N^5-[(trans)-2-(2-chloro-4-fluorophenyl)-1-oxo-2-azaspiro[4.5]dec-8-yl]-N^4-isopropyl-1H-imidazole-4,5-dicarboxamide]"
10,170,"Cc1cc(NC(=O)[C@H]2CC[C@H](NC(=O)c3cnn4cccnc34)CC2)c(Cl)cc1F [Example 150, N-{trans-4-[(2-chloro-4-fluoro-5-methylphenyl)carbamoyl]cyclohexyl}pyrazolo[1,5-a]pyrimidine-3-carboxamide]"
11,12,"CNC(=O)c1[nH]cnc1C(=O)N[C@H]1CC[C@@]2(CCN(c3ccc(F)cc3Cl)C2=O)CC1 [Example 140, N^4-[(trans)-2-(2-chloro-4-fluorophenyl)-1-oxo-2-azaspiro[4.5]dec-8-yl]-N^5-methyl-1H-imidazole-4,5-dicarboxamide]"
12,74,"Cc1cc(C)n2ncc(C(=O)N[C@H]3CC[C@H](C(=O)Nc4cc(F)c(F)cc4Cl)CC3)c2n1 [Example 134, N-{trans-4-[(2-chloro-4,5-difluorophenyl)carbamoyl]cyclohexyl}-5,7-dimethylpyrazolo[1,5-a]pyrimidine-3-carboxamide]"
13,37,"COCC(C)NC(=O)c1nc[nH]c1C(=O)N[C@H]1CC[C@@]2(CCN(c3ccc(F)cc3Cl)C2=O)CC1 (mixture of isomers) [Example 164, N^5-[(trans)-2-(2-chloro-4-fluorophenyl)-1-oxo-2-azaspiro[4.5]dec-8-yl]-N^4-(1-methoxypropan-2-yl)-1H-imidazole-4,5-dicarboxamide]"
14,93,"CNC(=O)c1nc[nH]c1C(=O)N[C@H]1CC[C@H](C(=O)Nc2cc(C(F)(F)F)ccc2Cl)CC1 [Example 142, N^5-(trans-4-{[2-chloro-5-(trifluoromethyl)phenyl]carbamoyl}cyclohexyl)-N^4-methyl-1H-imidazole-4,5-dicarboxamide]"
15,2400,"O=C(NCC(F)(F)F)c1nc[nH]c1C(=O)N[C@H]1CC[C@H](C(=O)Nc2cc(N3CCOCC3)ccc2Cl)CC1 [Example 95, N^5-(trans-4-{[2-chloro-5-(morpholin-4-yl)phenyl]carbamoyl}cyclohexyl)-N^4-(2,2,2-trifluoroethyl)-1H-imidazole-4,5-dicarboxamide]"

# More lines, now with the values behind:
row,Structure (SMILES),IC50 [nM]
1,"CNC(=O)c1[nH]cnc1C(=O)NC1CCC(C(=O)Nc2ccc(F)cc2Cl)CC1OC (stereo not drawn) [Example 36, N^4-{(1α,2β,4β)-4-[(2-chloro-4-fluorophenyl)carbamoyl]-2-methoxycyclohexyl}-N^5-methyl-1H-imidazole-4,5-dicarboxamide]",> 10000
2,"O=C(N[C@H]1CC[C@@]2(CCN(c3ccc(F)cc3Cl)C2=O)CC1)c1cnc2cccnn12 [Example 138, N-[(trans)-2-(2-chloro-4-fluorophenyl)-1-oxo-2-azaspiro[4.5]dec-8-yl]imidazo[1,2-b]pyridazine-3-carboxamide]",22
3,"COCc1cc(C)n2ncc(C(=O)N[C@H]3CC[C@H](C(=O)Nc4ccc(F)cc4Cl)CC3)c2n1 [Example 110, N-{trans-4-[(2-chloro-4-fluorophenyl)carbamoyl]cyclohexyl}-5-(methoxymethyl)-7-methylpyrazolo[1,5-a]pyrimidine-3-carboxamide]",310
4,"CNC(=O)c1nc[nH]c1C(=O)N[C@H]1CC[C@H](C(=O)Nc2c(F)cc(F)cc2Cl)CC1 [Example 6, N^5-{trans-4-[(2-chloro-4,6-difluorophenyl)carbamoyl]cyclohexyl}-N^4-methyl-1H-imidazole-4,5-dicarboxamide]",77
5,"COCCNC(=O)c1nc[nH]c1C(=O)N[C@H]1CC[C@@]2(CCN(c3ccc(F)cc3Cl)C2=O)CC1 [Example 163, N^5-[(trans)-2-(2-chloro-4-fluorophenyl)-1-oxo-2-azaspiro[4.5]dec-8-yl]-N^4-(2-methoxyethyl)-1H-imidazole-4,5-dicarboxamide]",13
6,"O=C(N[C@H]1CC[C@]2(CCN(c3ccc(F)cc3Cl)C2=O)CC1)c1cnn2cccnc12 [Example 148, N-[(cis)-2-(2-chloro-4-fluorophenyl)-1-oxo-2-azaspiro[4.5]dec-8-yl]pyrazolo[1,5-a]pyrimidine-3-carboxamide]",3900
7,"CNC(=O)c1nc[nH]c1C(=O)N[C@H]1CC[C@H](C(=O)Nc2ncncc2Cl)CC1 [Example 147, N^5-{trans-4-[(5-chloropyrimidin-4-yl)carbamoyl]cyclohexyl}-N^4-methyl-1H-imidazole-4,5-dicarboxamide]",150
8,"COC(C)(C)CNC(=O)c1nc[nH]c1C(=O)N[C@H]1CC[C@H](C(=O)Nc2cc(C)c(F)cc2Cl)CC1 [Example 101, N^5-{trans-4-[(2-chloro-4-fluoro-5-methylphenyl)carbamoyl]cyclohexyl}-N^4-(2-methoxy-2-methylpropyl)-1H-imidazole-4,5-dicarboxamide]",160
9,"COCc1cc(C)nc2c(C(=O)N[C@H]3CC[C@H](C(=O)Nc4ccc(F)cc4Cl)CC3)cnn12 [Example 111, N-{trans-4-[(2-chloro-4-fluorophenyl)carbamoyl]cyclohexyl}-7-(methoxymethyl)-5-methylpyrazolo[1,5-a]pyrimidine-3-carboxamide]",520
10,"CCOC(=O)c1cnc2c(C(=O)N[C@H]3CC[C@H](C(=O)Nc4ccc(F)cc4Cl)CC3)cnn2c1 [Example 106, ethyl 3-({trans-4-[(2-chloro-4-fluorophenyl)carbamoyl]cyclohexyl}carbamoyl)pyrazolo[1,5-a]pyrimidine-6-carboxylate]",49
11,"CNC(=O)c1[nH]cnc1C(=O)NC1CCC(C(=O)Nc2ccc(F)cc2Cl)CC1OC (stereo not drawn) [Example 37, N^4-{(1α,2β,4β)-4-[(2-chloro-4-fluorophenyl)carbamoyl]-2-methoxycyclohexyl}-N^5-methyl-1H-imidazole-4,5-dicarboxamide]",> 10000
